Measurements from PMC13224100, “Esterase-Responsive Mitochondria-Targeted Hydropersulfide Donors Mitigate Doxorubicin Cardiotoxicity While Preserving Anticancer Activity” (Angewandte Chemie (International ed. in English), 2025).
Marks after values point to notes of the source that are not given here.

Assays:
H9c2 cells = test: Mitochondrial membrane potential (TMRM) under DOX; type: cell-based; details: donor 25 μM, 4 h pretreatment, DOX 5 μM 24 h
Experimental: (§1) Figure 6. a) Basal sulfane sulfur (SS) levels in H9c2 cardiomyocyte, MDA-MB-468, MCF-7, and HepG2 cell lines as detected by SSP4 fluorescence. b) Representative images and c) basal levels of mitochondrial membrane potential (MMP) in H9c2 and cancer cells (MDA-MB-468, MCF-7, and HepG2). d) Impact of APT-1 (25 μM) or APT-1-TPP (25 μM) on MMP in DOX (5 μM)-treated (d) H9c2 and e) HepG2 cells. Impact of APT-1 (25 μM) and APT-1-TPP (25 μM) on ATP levels in DOX (5 μM)-treated f) H9c2 and g) HepG2 cells. Results are expressed as mean ± SEM, n = 3–6; *P < 0.05, **P < 0.01, ***P < 0.001, ****P < 0.0001. Significances in (a) and (c) are presented with respect to H9c2 cells.
(§2) We then examined how RSSH donors influence MMP during DOX exposure. As expected, DOX alone induced mitochondrial depolarization in H9c2 cells, reducing MMP to ca. 50% of control (Figure 6d). […] To complement these observations, we quantified intracellular ATP levels as a functional readout of mitochondrial activity. […]
(§3) Mitochondrial Membrane Potential Measurements
(§4) Mitochondrial membrane potential was measured using Image-iT™ TMRM Reagent (Cat#I34361, Invitrogen, USA) according to the manufacturer's protocols. […]
(§5) The cells were incubated for an additional 24 h. After completion of treatment, cells were washed with a warm clear DMEM medium (with 10% FBS) and incubated in culture media containing TMRM (working solution 100 nM) for 30 min at 37 °C. Cells were then washed with a warm clear FBS-free DMEM medium (3 times) before imaging. Images were obtained with Zeiss LSM 800 with AiryScan Confocal (λex = 548 nm, λem = 573 nm). During each experiment, 6 field images were obtained for each experimental group. Images were analyzed using Image J software, and all cells in each image were selected for fluorescence intensity measurement (cell-free space was also measured as blank). H9c2 signal intensity was set to 100% and signal intensity for all the other cell lines was shown as a percentage of that of H9c2.
(§6) The experiments were independently repeated three times (n = 3 biological replicates). Data are […]
(§7) Figure S24. Representative TMRM images for mitochondrial membrane potential (MMP) in H9c2 and HepG2 cells with APT-1 and APT-1-TPP treatment under DOX stress. Ctl = vehicle (medium with 0.01% […]
(§8) (1 picture or pasted object on this page, not shown here)

HepG2 cells = test: Mitochondrial membrane potential (TMRM) under DOX; type: cell-based; details: donor 25 μM, 4 h pretreatment, DOX 5 μM 24 h
Experimental: as §1, §2, §3, §4, §5, §6, §7, §8

[1] = test system: porcine liver esterase (PLE); test: Quantification of RSSH release (RSS-HPE-AM yield) by HPLC; type: biochemical; details: pH 7.4 ammonium bicarbonate with DTPA, 37 °C; for RSSH yield (%) (formation of RSS-HPE-AM): HPE-IAM trapping; for RSSH yield (%) (formation of TPP-RSS-HPE-AM): trapping with 50 equiv of HPE-IAM
Experimental: C. Quantification of RSSH Release by HPLC Analysis […]
(PLE, 1 U/mL) in ammonium bicarbonate buffer (100 mM, pH 7.4) containing diethylenetriaminepentaacetic acid (DTPA, 100 µM) at 37 °C. At designated time points, 200 μL aliquots were withdrawn and immediately quenched by mixing with 200 μL o f i c e-cold 0.1% formic acid. Samples were analyzed by HPLC using the same method and conditions as described above. Quantification of the trapped product (RSS-HPE-AM) was carried out using a calibration curve generated in-house with authentic standards. All experiments were performed in triplicate (n = 3), and data are reported as mean ± standard deviation (SD). […]
0.1% formic acid. Samples were analyzed by Agilent HPLC with UV detection using a C18 reverse-phase column (Phenomenex Luna C18, 4.6 × 150 mm, 5 μm) at 25 °C with a flow rate of 1.0 mL/min and an injection volume of 20 μL. The gradient elution (all solvents v/v, containing 0.1% trifluoroacetic acid) was as follows: 0–10 min, linear gradient from 90% water / 10% acetonitrile to 50% water / 50% acetonitrile; 10–18 min, to 10% water / 90% acetonitrile; 18–20 min, held at 10% water / 90% acetonitrile; 20–25 min, return to 90% water / 10% acetonitrile.
Absorbance was monitored at 275 nm. […]

SMILES	effect on DOX-induced loss of MMP (H9c2 cells)	effect on DOX-induced mitochondrial depolarization (HepG2 cells)	RSSH yield (%) (formation of RSS-HPE-AM) [1]	RSSH yield (%) (formation of TPP-RSS-HPE-AM) [1]	RSSH yield (%) (formation of TPP-RSS-HPE-AM) ([1]; listed as AsT-2-TPP)
CC(=O)NC(C(=O)N(C)CCC[P+](c1ccccc1)(c1ccccc1)c1ccccc1)C(C)(C)SSC(=O)N(C)CCOC(C)=O (stereo not drawn) [APT-1-TPP]	conferred protection, though to a slightly lesser extent	further exacerbated MMP loss	95		
COC(=O)C(NC(C)=O)C(C)(C)SSC(=O)N(C)CCOC(C)=O (stereo not drawn) [APT-1]	preserved MMP	neither donor prevented DOX-induced mitochondrial depolarization	92		
COC(=O)SSC(C)(C)C(NC(C)=O)C(=O)N(C)CCC[P+](c1ccccc1)(c1ccccc1)c1ccccc1 (stereo not drawn) [AST-2-TPP]				91	91^b) %
COC(=O)SSC(C)(C)C(NC(C)=O)C(=O)OC (stereo not drawn) [AST-2]			95		
